The source of these data is patent US7378495B2, “PTH-rP related peptide cancer therapeutics” (Pevion Biotech, Ltd., priority 2002, dated 2008).

For assay [1] the following is noted: 0.1 mg sc. in the dorsal neck, after 6 hours, three mice.
Assay [2] has as its target HLA-A(*)02.01 molecules (Homo sapiens, UniProt P04439, D140Y/D185E/D98H/E176V/E277Q/G131W/G231S/I119V/I121R/I166T/I218V/L300P/L318F/N151K/N90K/P208A/P217A/Q86G/Q94H/R138H/R169H/T345S). Put plainly: T2-A2 HLA up-regulation test (HLA-A2.1 class I up-regulation, peptide binding). As to conditions: positive cut-off 287.116. The method, then: T2-A2, HLA up-regulation test: binding of the PTR-2 and PTR-4 peptides to HLA-A(*)02.01 molecules was evaluated by means of flow cytometry using T2 cells and the method described by Nijman et al. In this assay, increased stability (the accumulation of HLA-A(*)02.01 molecules on the surface of T2 cells as a consequence of peptide binding) is measured in terms of the increased binding of the antibody directed against HLA-A(*)02.01. Briefly, 10^6 T2 cells in serum-free IMDM were incubated overnight with escalating concentrations (0, 5, 25 and 50 μg/ml) of the PTR peptides in 24-well culture plates at 37° C. in an atmosphere containing 5% CO2. The cells were then washed two times with DPBS, and subsequently incubated for one hour with an anti-HLA-A(*)02.01 (A2.69) specific monoclonal antibody (A2.69, #189HA-1; One Lambda, Inc., Canoga Park, Calif.), using 10 μl of the recommended dilution per 10^6 cells. UPC-10 (Cappel/Organon Teknika Corp) was used as an isotype control. The cells were again washed two times with DPBS, incubated with 100 μl of a 1:100 dilution of fluorescein isothiocyanate (FITC)-labeled anti-mouse IgG (Becton Dickinson Corp.), and analyzed by means of FACScan and single-color analysis. The cells were kept at 4° C. during all of the manipulations unless otherwise stated.
Peptide selection and HLA-A(*)02.01 binding: In order to test the immunogenicity of PTH-rP protein and test possible tolerance of human T cell repertoire specific for it, the PTH-rP molecules were screened with the “Parker” algorithm (BIMAS) in order to predict peptides having high theoretical HLA-A(*)02.01 binding motifs. The functional binding of the two peptides to HLA-A(*)02.01 molecules was tested in vitro by means of the T2 test. PTH-rP peptides with similar or overlapping amino acid homology to the analogue sequences of parathyroid hormone (PTH) were cut out of the screening. The peptide sequences included in the first 36 amino acids (pro-peptide) were ignored although theoretically predicted with higher affinity for the HLA-A(*)02.01 molecule. […]

Marks after values point to notes of the source that are not given here. Bridges are numbered along the chain shown (N, C = ends). Where no end group is shown, it is not given here.

As to “Human synthetic thyreocalcitonin: Sigma-Aldrich # T3535, positive control capable to induce hypocalcemia (CGNLSTCMLGTYTQDFNKFHTFPQTAIGVGAP-NH2; disulfide 1-7; ends not checked; UniProt P01258 85-116, looked up)”, the “Serum Ca (hypocalcemia induced by positive control)” value in assay [1] was 0.64 ± 0.645 mmol/L.

For YLSGANLNL [CAP-1], the T2 binding in assay [2] (peptide 5 μg/ml) is given as 240^d relative fluorescence values; in assay [2] (peptide 25 μg/ml) it was 352^e relative fluorescence values; in assay [2] (peptide 50 μg/ml), 502.9^f relative fluorescence values.
